In patent US20090036407A1, “FLEA CONTROL METHOD” (priority 2007, published 2009):

System: eggs of C. felis
Assay: Eggs and larvae of C. felis, egg to adult development assay (Test A, Test Example 1)
Format: in vivo
Settings: 30 eggs x 3 replicates, 28 days
Experimental: Eggs and Larvae of C. felis—Egg to Adult Development Assay A larval support media was prepared consisting of 1 g dried bovine blood, 1 g dog biscuit and 5 g of fine sand. Two grams of the larval support media were placed into a 30 mL container for treatment with the test compound and drying. The test compound (3-bromo-N-[4-chloro-2-methyl-6-(methylcarbamoyl)phenyl]-1-(3-chloropyridin-2-yl)-1H-pyrazole-5-carboxamide) was prepared in acetone and serially diluted prior to testing. The concentrations used were as follows: 1 ug/uL, 0.5, 0.25, 0.125, 0.0625 ug/uL. 30 eggs of C. felis were placed into the culturing medium. Each concentration was replicated 3 times giving a total of 90 eggs per dose level. The untreated control was treated with acetone only. The containers were placed into a temperature and humidity controlled room and maintained for 28 days. After the incubation period had elapsed the containers were placed into a freezer for 1 hour. The adults and pupae were counted and % of adults and pupae that developed at each dose level was calculated. The activity was compared to Methoprene.

[1] = concentration 0.0625 (ug/uL) in treated larval support media
[2] = concentration 0.125 (ug/uL) in treated larval support media
[3] = concentration 0.25 (ug/uL) in treated larval support media
[4] = concentration 0.5 (ug/uL) in treated larval support media
[5] = concentration 1.0 (ug/uL) in treated larval support media

**Q.** Which results are given for `COC(C)(C)CCC[C@H](C)C/C=C/C(C)=C/C(=O)OC(C)C` (racemic) [Methoprene]?
**A.** % eggs developed into adults [1]: 14.4%; % eggs developed into adults [2]: 3.3%; % eggs developed into adults [3]: 1.1%; % eggs developed into adults [4]: 0.0%; % eggs developed into adults [5]: 0.0%

**Q.** What does the source list for `CNC(=O)c1cc(Cl)cc(C)c1NC(=O)c1cc(Br)nn1-c1ncccc1Cl` [Test Compound, 3-bromo-N-[4-chloro-2-methyl-6-(methylcarbamoyl)phenyl]-1-(3-chloropyridin-2-yl)-1H-pyrazole-5-carboxamide]?
**A.** % eggs developed into adults [1]: 18.9%; % eggs developed into adults [2]: 0.0%; % eggs developed into adults [3]: 0.0%; % eggs developed into adults [4]: 0.0%; % eggs developed into adults [5]: 0.0%
